Values after ≈ are worked out from the molar mass of the structure shown.
Legend:
C. albicans (ATCC 24433) = assay: In vitro antifungal activity (CLSI) against C. albicans; assay type: cell-based; details: for MIC: Candida albicans, ATCC24433
Text: (§1) Voriconazole and fluconazole (against candida strains) were used as standard reference drugs.

C. krusei (ATCC 6258) = assay: In vitro antifungal activity (CLSI) against C. krusei; assay type: cell-based; details: for MIC: Pichia kudriavzevii, ATCC6258
Text: as §1

C. glabrata (ATCC 9) = assay: In vitro antifungal activity (CLSI) against C. glabrata; assay type: cell-based; details: for Antifungal activity (MIC), C. glabrata / MIC: C. glabrata ATCC 9; for Effectiveness against C. glabrata compared with fluconazole / Effectiveness against C. glabrata compared with voriconazole: from MIC values; for MIC: Nakaseomyces glabratus, ATCC9
Text: as §1

[1] = tested on: C. parapsilopsis (ATCC 22019); assay: In vitro antifungal activity (CLSI) against C. parapsilosis; assay type: cell-based; details: for MIC: Lodderomyces parapsilosis, ATCC22019
Text: as §1

L929 cell lines = assay: Cytotoxicity MTT assay on L929 fibroblasts; assay type: cell-based
Procedure: (§2) The cytotoxic effect of compounds 6a–6l was evaluated against L929 cell lines. For preliminary screening, the cytotoxic bioactivity of synthesized compounds was evaluated in vitro against L929 cell lines with the MTT assay. […] The effect of the compounds 6a–6l on the viability of L929 cell lines was analyzed by MTT assay as described in the previous work.[45]

[2] = Cytotoxicity MTT assay on L929 fibroblasts; assay type: cell-based; details: mouse, L929 fibroblast cells; 100 μM, 48 h, L929 cell lines, MTT
Procedure: as §2

N#Cc1ccc2[nH]c(-c3ccc(-c4nnc(SCC(=O)c5ccc(F)cc5)n4-c4ccccc4)cc3)nc2c1 [6d, 2-(4-(5-((2-(4-Fluorophenyl)-2-oxoethyl)thio)-4-phenyl-4H-1,2,4-triazol-3-yl)phenyl)-1H-benz[d]imidazole-5(6)-carbonitrile]
Antifungal activity (MIC), C. albicans (C. albicans (ATCC 24433)): 62.5 µg/mL | Antifungal activity (MIC), C. krusei (C. krusei (ATCC 6258)): 125 µg/mL | Antifungal activity (MIC), C. glabrata (C. glabrata (ATCC 9)): 1.95 µg/mL | Effectiveness against C. glabrata compared with fluconazole (C. glabrata (ATCC 9)): two times more effective | Effectiveness against C. glabrata compared with voriconazole (C. glabrata (ATCC 9)): same activity | Antifungal activity (MIC), C. parapsilosis [1]: 125 µg/mL | cell viability (%) (L929 cell lines; 100 µM): 34.2 ± 5.13%

N#Cc1ccc2[nH]c(-c3ccc(-c4nnc(SCC(=O)c5ccccc5)n4-c4ccccc4)cc3)nc2c1 [6l, 2-(4-(5-((2-Oxo-2-phenylethyl)thio)-4-phenyl-4H-1,2,4-triazol-3-yl)phenyl)-1H-benz[d]imidazole-5(6)-carbonitrile]
Antifungal activity (MIC), C. albicans (C. albicans (ATCC 24433)): 31.25 µg/mL | Antifungal activity (MIC), C. krusei (C. krusei (ATCC 6258)): 125 µg/mL | Antifungal activity (MIC), C. glabrata (C. glabrata (ATCC 9)): 1.95 µg/mL | Effectiveness against C. glabrata compared with fluconazole (C. glabrata (ATCC 9)): two times more effective | Effectiveness against C. glabrata compared with voriconazole (C. glabrata (ATCC 9)): same activity | Antifungal activity (MIC), C. parapsilosis [1]: 31.25 µg/mL | cell viability (%) (L929 cell lines; 100 µM): 37.6 ± 3.55%

N#Cc1ccc2[nH]c(-c3ccc(-c4nnc(SCC(=O)c5ccc(F)cc5F)n4-c4ccccc4)cc3)nc2c1 [6h, 2-(4-(5-((2-(2,4-Difluorophenyl)-2-oxoethyl)thio)-4-phenyl-4H-1,2,4-triazol-3-yl)phenyl)-1H-benz[d]imidazole-5(6)-carbonitrile]
Antifungal activity (MIC), C. albicans (C. albicans (ATCC 24433)): 62.5 µg/mL | Antifungal activity (MIC), C. krusei (C. krusei (ATCC 6258)): 62.5 µg/mL | Antifungal activity (MIC), C. glabrata (C. glabrata (ATCC 9)): 1.95 µg/mL | Effectiveness against C. glabrata compared with fluconazole (C. glabrata (ATCC 9)): two times more effective | Effectiveness against C. glabrata compared with voriconazole (C. glabrata (ATCC 9)): same activity | Antifungal activity (MIC), C. parapsilosis [1]: 62.5 µg/mL | cell viability (%) (L929 cell lines; 100 µM): 28.1 ± 1.48%

N#Cc1ccc2[nH]c(-c3ccc(-c4nnc(SCC(=O)c5cccc([N+](=O)[O-])c5)n4-c4ccccc4)cc3)nc2c1 [6k, 2-(4-(5-((2-(3-Nitrophenyl)-2-oxoethyl)thio)-4-phenyl-4H-1,2,4-triazol-3-yl)phenyl)-1H-benz[d]imidazole-5(6)-carbonitrile]
Antifungal activity (MIC), C. albicans (C. albicans (ATCC 24433)): 31.25 µg/mL | Antifungal activity (MIC), C. krusei (C. krusei (ATCC 6258)): 125 µg/mL | Antifungal activity (MIC), C. glabrata (C. glabrata (ATCC 9)): 1.95 µg/mL | Effectiveness against C. glabrata compared with fluconazole (C. glabrata (ATCC 9)): two times more effective | Effectiveness against C. glabrata compared with voriconazole (C. glabrata (ATCC 9)): same activity | Antifungal activity (MIC), C. parapsilosis [1]: 31.25 µg/mL | cell viability (%) (L929 cell lines; 100 µM): 30.3 ± 0.41%

N#Cc1ccc2[nH]c(-c3ccc(-c4nnc(SCC(=O)c5ccc(Cl)c(Cl)c5)n4-c4ccccc4)cc3)nc2c1 [6g, 2-(4-(5-((2-(3,4-Dichlorophenyl)-2-oxoethyl)thio)-4-phenyl-4H-1,2,4-triazol-3-yl)phenyl)-1H-benz[d]imidazole-5(6)-carbonitrile]
Antifungal activity (MIC), C. albicans (C. albicans (ATCC 24433)): 125 µg/mL | Antifungal activity (MIC), C. krusei (C. krusei (ATCC 6258)): 250 µg/mL | Antifungal activity (MIC), C. glabrata (C. glabrata (ATCC 9)): 1.95 µg/mL | Effectiveness against C. glabrata compared with fluconazole (C. glabrata (ATCC 9)): two times more effective | Effectiveness against C. glabrata compared with voriconazole (C. glabrata (ATCC 9)): same activity | Antifungal activity (MIC), C. parapsilosis [1]: 31.25 µg/mL | cell viability (%) (L929 cell lines; 100 µM): 34.6 ± 3.51%

N#Cc1ccc2[nH]c(-c3ccc(-c4nnc(SCC(=O)c5ccc(Br)cc5)n4-c4ccccc4)cc3)nc2c1 [6f, 2-(4-(5-((2-(4-Bromophenyl)-2-oxoethyl)thio)-4-phenyl-4H-1,2,4-triazol-3-yl)phenyl)-1H-benz[d]imidazole-5(6)-carbonitrile]
Antifungal activity (MIC), C. albicans (C. albicans (ATCC 24433)): 62.5 µg/mL | Antifungal activity (MIC), C. krusei (C. krusei (ATCC 6258)): 125 µg/mL | Antifungal activity (MIC), C. glabrata (C. glabrata (ATCC 9)): 1.95 µg/mL | Effectiveness against C. glabrata compared with fluconazole (C. glabrata (ATCC 9)): two times more effective | Effectiveness against C. glabrata compared with voriconazole (C. glabrata (ATCC 9)): same activity | Antifungal activity (MIC), C. parapsilosis [1]: 62.5 µg/mL | cell viability (%) (L929 cell lines; 100 µM): 27.6 ± 1.02%

N#Cc1ccc(C(=O)CSc2nnc(-c3ccc(-c4nc5cc(C#N)ccc5[nH]4)cc3)n2-c2ccccc2)cc1 [6c, 2-(4-(5-((2-(4-Cyanophenyl)-2-oxoethyl)thio)-4-phenyl-4H-1,2,4-triazol-3-yl)phenyl)-1H-benz[d]imidazole-5(6)-carbonitrile]
Antifungal activity (MIC), C. albicans (C. albicans (ATCC 24433)): 31.25 µg/mL | Antifungal activity (MIC), C. krusei (C. krusei (ATCC 6258)): 125 µg/mL | Antifungal activity (MIC), C. glabrata (C. glabrata (ATCC 9)): 1.95 µg/mL | Effectiveness against C. glabrata compared with fluconazole (C. glabrata (ATCC 9)): two times more effective | Effectiveness against C. glabrata compared with voriconazole (C. glabrata (ATCC 9)): same activity | Antifungal activity (MIC), C. parapsilosis [1]: 31.25 µg/mL | cell viability (%) (L929 cell lines; 100 µM): 30.9 ± 1.42%

N#Cc1ccc2[nH]c(-c3ccc(-c4nnc(SCC(=O)c5ccc(-c6ccccc6)cc5)n4-c4ccccc4)cc3)nc2c1 [6e, 2-(4-(5-((2-([1,1′-Biphenyl]-4-yl)2-oxoethyl)thio)-4-phenyl-4H-1,2,4-triazol-3-yl)phenyl)-1H-benz[d]imidazole-5(6)-carbonitrile]
Antifungal activity (MIC), C. albicans (C. albicans (ATCC 24433)): 62.5 µg/mL | Antifungal activity (MIC), C. krusei (C. krusei (ATCC 6258)): 125 µg/mL | Antifungal activity (MIC), C. glabrata (C. glabrata (ATCC 9)): 1.95 µg/mL | Effectiveness against C. glabrata compared with fluconazole (C. glabrata (ATCC 9)): two times more effective | Effectiveness against C. glabrata compared with voriconazole (C. glabrata (ATCC 9)): same activity | Antifungal activity (MIC), C. parapsilosis [1]: 62.5 µg/mL | cell viability (%) (L929 cell lines; 100 μM, 48 h, L929 cell lines, MTT): 40 ± 8.71%

COc1ccc(C(=O)CSc2nnc(-c3ccc(-c4nc5cc(C#N)ccc5[nH]4)cc3)n2-c2ccccc2)cc1 [6b, 2-(4-(5-((2-(4-Methoxyphenyl)-2-oxoethyl)thio)-4-phenyl-4H-1,2,4-triazol-3-yl)phenyl)-1H-benz[d]imidazole-5(6)-carbonitrile]
MIC (C. albicans (ATCC 24433)): 31.2 µg/mL (≈ 57.6 µM) | MIC (C. krusei (ATCC 6258)): 125 µg/mL (≈ 230 µM) | MIC (C. glabrata (ATCC 9)): 0.97 µg/mL (≈ 1.79 µM) | Effectiveness against C. glabrata compared with fluconazole (C. glabrata (ATCC 9)): four times more effective | Effectiveness against C. glabrata compared with voriconazole (C. glabrata (ATCC 9)): two times more effective | MIC [1]: 31.2 µg/mL (≈ 57.6 µM) | viability at 48 h, 100 µM [2]: 32.1 ± 1.38% | melting point: 177.6 °C

C[C@@H](c1ncncc1F)[C@](O)(Cn1cncn1)c1ccc(F)cc1F [voriconazole, reference compound]
MIC (C. albicans (ATCC 24433)): 3.9 µg/mL (≈ 11.2 µM) | MIC (C. krusei (ATCC 6258)): 3.9 µg/mL (≈ 11.2 µM) | MIC (C. glabrata (ATCC 9)): 1.95 µg/mL (≈ 5.58 µM) | MIC [1]: 3.9 µg/mL (≈ 11.2 µM)

N#Cc1ccc2nc(-c3ccc(-c4nnc(SCC(=O)c5ccc(Cl)cc5Cl)n4-c4ccccc4)cc3)[nH]c2c1 [6j, 2-(4-(5-((2-(2,4-Dichlorophenyl)-2-oxoethyl)thio)-4-phenyl-4H-1,2,4-triazol-3-yl)phenyl)-1H-benz[d]imidazole-5(6)-carbonitrile]
MIC (C. albicans (ATCC 24433)): 62.5 µg/mL (≈ 107 µM) | MIC (C. krusei (ATCC 6258)): 125 µg/mL (≈ 215 µM) | MIC (C. glabrata (ATCC 9)): 0.97 µg/mL (≈ 1.67 µM) | Effectiveness against C. glabrata compared with fluconazole (C. glabrata (ATCC 9)): four times more effective | Effectiveness against C. glabrata compared with voriconazole (C. glabrata (ATCC 9)): two times more effective | MIC [1]: 31.2 µg/mL (≈ 53.7 µM) | viability at 48 h, 100 µM [2]: 32.5 ± 1.34% | melting point: 206.5 °C

2-(4-(5-((2-(4-Nitrophenyl)-2-oxoethyl)thio)-4-phenyl-4H-1,2,4-triazol-3-yl)phenyl)-1H-benz[d]imidazole-5(6)-carbonitrile [6a]
Antifungal activity (MIC), C. albicans (C. albicans (ATCC 24433)): 31.25 µg/mL | Antifungal activity (MIC), C. krusei (C. krusei (ATCC 6258)): 125 µg/mL | Antifungal activity (MIC), C. glabrata (C. glabrata (ATCC 9)): 1.95 µg/mL | Effectiveness against C. glabrata compared with fluconazole (C. glabrata (ATCC 9)): two times more effective | Effectiveness against C. glabrata compared with voriconazole (C. glabrata (ATCC 9)): same activity | Antifungal activity (MIC), C. parapsilosis [1]: 62.5 µg/mL | cell viability (%) (L929 cell lines; 100 µM): 34 ± 6.19%

N#Cc1ccc2nc(-c3ccc(-c4nnc(SCC(=O)c5ccc(Cl)cc5)n4-c4ccccc4)cc3)[nH]c2c1 [6i, 2-(4-(5-((2-(4-Chlorophenyl)-2-oxoethyl)thio)-4-phenyl-4H-1,2,4-triazol-3-yl)phenyl)-1H-benz[d]imidazole-5(6)-carbonitrile]
MIC (C. albicans (ATCC 24433)): 62.5 µg/mL (≈ 114 µM) | MIC (C. krusei (ATCC 6258)): 125 µg/mL (≈ 229 µM) | MIC (C. glabrata (ATCC 9)): 0.97 µg/mL (≈ 1.77 µM) | Effectiveness against C. glabrata compared with fluconazole (C. glabrata (ATCC 9)): four times more effective | Effectiveness against C. glabrata compared with voriconazole (C. glabrata (ATCC 9)): two times more effective | MIC [1]: 31.2 µg/mL (≈ 57.1 µM) | viability at 48 h, 100 µM [2]: 53.6 ± 2.82% | IC50 (L929 cell lines; Mus musculus, L929 fibroblasts, MTT, maximum dose 100 μM, 48 h, read-out: IC50 against L929): > 100 µM | melting point: 197.9 °C

OC(Cn1cncn1)(Cn1cncn1)c1ccc(F)cc1F [fluconazole, reference compound]
MIC (C. albicans (ATCC 24433)): 7.81 µg/mL (≈ 25.5 µM) | MIC (C. krusei (ATCC 6258)): 7.81 µg/mL (≈ 25.5 µM) | MIC (C. glabrata (ATCC 9)): 3.9 µg/mL (≈ 12.7 µM) | MIC [1]: 3.9 µg/mL (≈ 12.7 µM)
